Source: PMC8295196 (Organic & biomolecular chemistry, 2021)

Assays:
Cytidine Deaminase (CDA) [1] = molecular target: T1, Cytidine Deaminase (CDA) (Homo sapiens, UniProt P32320, K27Q); test: HPLC analysis of enzymatic deamination reactions; format: biochemical; details: after 60 minutes
Cytidine Deaminase (CDA) [2] = molecular target: T1, Cytidine Deaminase (CDA); test: CDA-mediated deamination monitored by emission; details: for k1 / k2: Michaelis-Menten differential equations; for k−1: Michaelis-Menten, values assumed to be ≤10% of k1 values; for Km: calculated from k1, k−1 and k2
Cytidine Deaminase (CDA) [3] = molecular target: T1, Cytidine Deaminase (CDA); test: CDA-mediated deamination monitored by absorbance; details: for k1 / k2: Michaelis-Menten differential equations; for k−1: Michaelis-Menten, values assumed to be ≤10% of k1 values; for Km: calculated from k1, k−1 and k2
[4] = pseudo-first order fit to emission curves
[5] = pseudo-first order fit, emission (Em)
[6] = pseudo-first order fit to absorption curves
[7] = pseudo-first order fit, absorption (Abs)

T1 sequence (P32320 whole entry K27Q): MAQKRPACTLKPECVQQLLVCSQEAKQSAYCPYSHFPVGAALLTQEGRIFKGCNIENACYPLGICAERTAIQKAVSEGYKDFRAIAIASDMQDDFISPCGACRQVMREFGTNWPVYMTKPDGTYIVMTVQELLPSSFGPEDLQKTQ

| SMILES | conversion to corresponding U analogue by CDA (HPLC) (Cytidine Deaminase (CDA) [1]) | k1 (Cytidine Deaminase (CDA) [2]; emission (Em)) [M⁻¹ s⁻¹] | k2 (Cytidine Deaminase (CDA) [2]; emission (Em)) [s⁻¹] | k−1 (Cytidine Deaminase (CDA) [2]; emission (Em)) [s⁻¹] | Km (Cytidine Deaminase (CDA) [2]; emission (Em)) [µM] | kapp (Cytidine Deaminase (CDA) [2]; [4]) [s^–1] | kapp (Cytidine Deaminase (CDA) [2]; [5]) | t1/2 (Cytidine Deaminase (CDA) [2]; [5]) [min] | k1 (Cytidine Deaminase (CDA) [3]; absorption (Abs)) [M⁻¹ s⁻¹] | k2 (Cytidine Deaminase (CDA) [3]; absorption (Abs)) [s⁻¹] | k−1 (Cytidine Deaminase (CDA) [3]; absorption (Abs)) [s⁻¹] | Km (Cytidine Deaminase (CDA) [3]; absorption (Abs)) [µM] | kapp (Cytidine Deaminase (CDA) [3]; [6]) [s^–1] | kapp (Cytidine Deaminase (CDA) [3]; [7]) | t1/2 (Cytidine Deaminase (CDA) [3]; [7]) [min] |
| --- | --- | --- | --- | --- | --- | --- | --- | --- | --- | --- | --- | --- | --- | --- | --- |
| Nc1nc(=O)[nH]c2c([C@@H]3O[C@H](CO)[C@@H](O)[C@H]3O)scc12 [^thC] | complete conversion | 950000 ± 140000 | 46 ± 5.3 | 0.095 | 49 | 7.4 ± 0.1 | 7.4 ± 0.1 x 10^−3 s^−1 | 1.57 ± 0.033 | 1.01e+06 ± 470000 | 34 ± 7.2 | 0.101 | 34 | 7.2 ± 0.2 | 7.2 ± 0.2 x 10^−3 s^−1 | 1.53 ± 0.083 |
| Cc1sc([C@@H]2O[C@H](CO)[C@@H](O)[C@H]2O)c2[nH]c(=O)nc(N)c12 [^mthC] | complete conversion | 710000 ± 180000 | 45 ± 2.3 | 0.071 | 63 | 5.7 ± 0.1 | 5.7 ± 0.1 x 10^−3 s^−1 | 2 ± 0.13 | 750000 ± 160000 | 56 ± 5.9 | 0.075 | 75 | 6.1 ± 0.2 | 6.1 ± 0.2 x 10^−3 s^−1 | 1.83 ± 0.033 |
| Nc1nc(=O)[nH]c2c([C@@H]3O[C@H](CO)[C@@H](O)[C@H]3O)snc12 [^tzC] | complete conversion | 1.06e+06 ± 320000 | 4.6 ± 1.3 | 0.106 | 4.4 | 4.1 ± 0.1 | 4.1 ± 0.1 x 10^−3 s^−1 | 2.83 ± 0.167 | 1.04e+06 ± 10000 | 3.2 ± 0.3 | 0.104 | 3.1 | 3.3 ± 0.1 | 3.3 ± 0.1 x 10^−3 s^−1 | 3.5 ± 0.267 |
